Measurements published in ChEMBL document CHEMBL1201862, “PubChem BioAssay data set” (2004).
Where “and” joins values, the source holds several entries; their conditions need not be identical. Equal values may be shown once. Where a name gives a salt, the structure may show the parent alone. Values belong to the compound of their own block, whether it stands above or below them. Calls of active or inactive are those of the source.

Tests used:
[1] = target: Eukaryotic translation initiation factor 4E (Mus musculus, UniProt P63073); test: blockers of eIF4G binding by eIF4E – biochemical, TR-FRET, dose response (AID 855); format: functional;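 further: potency for disrupting eIF4E binding to eIF4GI seen as loss of FRET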
[2] = target: Glutathione-S-transferase (Schistosoma japonicum, UniProt Q26513); test: GST-antibody interaction or FRET quenching – biochemical, TR-FRET, artefact control for Vif-APOBEC3G degradation inhibitor project, dose response (AID 1117362); format: functional
[3] = target: T1, Voltage-gated N-type calcium channel alpha-1B subunit/Amyloid beta A4 precursor protein-binding family A member 1 (Homo sapiens, UniProt Q00975+Q02410); format: protein assay
[4] = target: T2, Tyrosine-protein phosphatase non-receptor type 7 (Homo sapiens, UniProt P35236); test: redox-active compounds inhibiting HePTP phosphatase – biochemical, fluorescence, mechanism study (AID 2068); format: functional
T2 sequence (P35236 whole entry): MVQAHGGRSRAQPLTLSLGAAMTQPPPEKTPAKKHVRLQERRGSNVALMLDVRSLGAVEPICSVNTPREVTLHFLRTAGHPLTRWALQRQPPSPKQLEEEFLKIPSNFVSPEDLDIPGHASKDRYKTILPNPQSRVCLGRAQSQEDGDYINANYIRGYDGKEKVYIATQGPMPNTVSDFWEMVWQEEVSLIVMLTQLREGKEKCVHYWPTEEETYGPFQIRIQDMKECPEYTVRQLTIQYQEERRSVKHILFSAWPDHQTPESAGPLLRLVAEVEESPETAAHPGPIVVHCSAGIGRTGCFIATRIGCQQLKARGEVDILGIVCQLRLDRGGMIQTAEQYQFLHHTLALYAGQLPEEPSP

[5] = target: T1, Voltage-gated N-type calcium channel alpha-1B subunit/Amyloid beta A4 precursor protein-binding family A member 1; format: protein assay; remark: listed apart in the source
[6] = target: T3, Short transient receptor potential channel 4 (Mus musculus, UniProt Q9QUQ5); test: potentiation of DAMGO-evoked TRPC4 calcium signal – cell-based, HEK293 TRPC4/mu-opioid, Fluo-4 calcium, EC20 DAMGO, dose response (AID 434941); format: functional
T3 sequence (Q9QUQ5 whole entry): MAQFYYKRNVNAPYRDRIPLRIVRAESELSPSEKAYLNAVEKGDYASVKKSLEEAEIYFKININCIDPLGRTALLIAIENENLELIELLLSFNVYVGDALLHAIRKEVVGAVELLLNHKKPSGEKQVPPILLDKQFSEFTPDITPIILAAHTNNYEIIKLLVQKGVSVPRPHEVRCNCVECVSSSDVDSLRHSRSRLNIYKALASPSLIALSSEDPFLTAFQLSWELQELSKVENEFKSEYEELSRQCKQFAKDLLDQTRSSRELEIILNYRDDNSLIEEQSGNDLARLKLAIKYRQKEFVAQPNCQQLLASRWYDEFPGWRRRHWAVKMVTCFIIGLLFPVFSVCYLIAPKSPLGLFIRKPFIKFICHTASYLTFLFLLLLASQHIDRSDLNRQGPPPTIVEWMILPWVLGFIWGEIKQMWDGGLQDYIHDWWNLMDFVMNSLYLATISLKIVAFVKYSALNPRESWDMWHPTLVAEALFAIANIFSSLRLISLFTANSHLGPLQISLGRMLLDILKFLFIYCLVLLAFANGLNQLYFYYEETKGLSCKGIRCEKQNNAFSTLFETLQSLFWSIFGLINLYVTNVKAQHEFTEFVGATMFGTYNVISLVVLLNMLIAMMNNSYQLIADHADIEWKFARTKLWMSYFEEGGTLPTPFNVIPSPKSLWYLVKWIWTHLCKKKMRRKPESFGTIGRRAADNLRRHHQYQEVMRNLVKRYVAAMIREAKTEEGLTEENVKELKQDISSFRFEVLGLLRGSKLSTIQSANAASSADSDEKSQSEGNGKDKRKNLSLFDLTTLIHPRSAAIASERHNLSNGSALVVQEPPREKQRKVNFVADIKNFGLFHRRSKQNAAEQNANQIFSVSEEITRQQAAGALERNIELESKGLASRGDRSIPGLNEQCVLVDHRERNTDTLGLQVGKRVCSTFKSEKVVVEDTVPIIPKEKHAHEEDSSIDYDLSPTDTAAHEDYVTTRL

[7] = Luminescence Cell-Based Secondary HTS screen to identify cytotoxic compounds of NIH3T3 cells. [Related pubchem assays: 1885, 1968 ]; format: functional
[8] = test system: Trypanosoma cruzi; test: anti-trypanosomal activity in host cells – cell-based, plate reader, dry powder, set 3, dose response (AID 493197); format: functional
[9] = NIH/3T3 cell viability loss – mouse embryonic fibroblasts, dry powder, set 2, cytotoxicity control, dose response (AID 493247); format: functional, cell-based; details: Fibroblast
[10] = Luminescence Cell-Based/Microorganism Confirmation at Dose of Inhibitors of Trypanosoma cruzi Infection. [Related pubchem assays: 1885, 1968 ]; format: functional
[11] = target: T4, Phosphomannomutase 2 (Homo sapiens, UniProt O15305); test: Counter screen SAR assay for PMM2 inhibitors via a fluorescence intensity assay. [Related pubchem assays (depositor defined):AID1545, AID1574]
T4 sequence (O15305 whole entry): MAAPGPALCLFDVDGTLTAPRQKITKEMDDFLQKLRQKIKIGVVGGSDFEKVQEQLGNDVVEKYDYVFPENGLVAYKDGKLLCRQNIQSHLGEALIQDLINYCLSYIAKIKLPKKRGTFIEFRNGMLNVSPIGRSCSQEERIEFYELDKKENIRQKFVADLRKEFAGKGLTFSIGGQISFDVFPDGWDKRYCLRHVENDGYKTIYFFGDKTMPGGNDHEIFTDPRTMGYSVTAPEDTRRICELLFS

[12] = target: Hexokinase (Trypanosoma brucei, UniProt Q38C41); test: Confirmation assay for inhibitors of Trypanosoma brucei hexokinase 1-Analogue-first series. [Related pubchem assays (depositor defined):AID1430, AID1632, AID2516, AID2560, AID2579, AID2600, AID449725, AID492951]; format: functional
[13] = target: T5, Mannose-6-phosphate isomerase (Homo sapiens, UniProt P34949); test: phosphomannose isomerase inhibition – biochemical, fluorescence intensity, confirmation (AID 1535)
T5 sequence (P34949 whole entry): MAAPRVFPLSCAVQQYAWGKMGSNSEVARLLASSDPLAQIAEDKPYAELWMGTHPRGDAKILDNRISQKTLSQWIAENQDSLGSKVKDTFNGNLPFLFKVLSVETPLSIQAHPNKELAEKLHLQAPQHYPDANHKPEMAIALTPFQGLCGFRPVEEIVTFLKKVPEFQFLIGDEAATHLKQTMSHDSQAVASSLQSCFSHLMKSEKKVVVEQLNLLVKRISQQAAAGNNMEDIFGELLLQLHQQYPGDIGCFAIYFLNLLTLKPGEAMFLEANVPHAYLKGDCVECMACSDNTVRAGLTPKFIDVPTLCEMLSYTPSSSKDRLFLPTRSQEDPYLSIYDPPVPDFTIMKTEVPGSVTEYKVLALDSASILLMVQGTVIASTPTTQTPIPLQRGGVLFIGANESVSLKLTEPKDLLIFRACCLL

[14] = target: Delta-type opioid receptor (Homo sapiens, UniProt P41143); test: SAR Analysis of Antagonists of the DOR Receptor using an Image-Based Assay - Set 3. [Related pubchem assays (depositor defined):AID1777, AID1785]; format: functional;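 further: U2OS cells expressing DOR1 and beta-arrestin GFP stimulated with 100 nM SNC80; imaging of GFP-tagged beta-arrestin moving into spots after receptor activation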
[15] = target: T6, Kappa-type opioid receptor (Homo sapiens, UniProt P41145); test: SAR analysis of small molecule antagonists of the kappa opioid receptor via a luminescent beta-arrestin assay - Set 3. [Related pubchem assays (depositor defined):AID1777, AID1778, AID1785, AID1786, AID1966, AID2133, AID2136, AID2285, AID2495]; format: functional
[16] = target: Mu-type opioid receptor (Homo sapiens, UniProt P35372); test: SAR Analysis of Antagonists of the MOR Receptor using an Image-Based Assay - Set 3. [Related pubchem assays (depositor defined):AID1777, AID1785, AID1786, AID1966, AID2133, AID2136, AID2284, AID2285, AID2420]; format: functional
[17] = target: T6, Kappa-type opioid receptor; test: SAR analysis of Antagonists of the Kappa Opioid Receptor (KOR) using an Image-Based Assay - Set 3. [Related pubchem assays (depositor defined):AID1777, AID1785]; format: functional
[18] = fluconazole-exposed Candida albicans growth modulators – fluorescence, retest, confirmation (AID 2467); format: functional, cell-based
[19] = target: Intestinal-type alkaline phosphatase (Mus musculus, UniProt P24822); test: PubChem AID 488875; format: functional
[20] = target: T7, SUMO-activating enzyme (Homo sapiens, UniProt Q9UBT2); test: blockers of SAE1/SAE2–UBC9 SUMO transfer – biochemical, HTRF, uHTS, primary screen (AID 2006); format: protein-complex assay
[21] = NIH-3T3 fibroblast cytotoxicity, dose response, cytotoxicity control, cell-based, fluorescence, Alamar Blue, secondary assay (AID 2327); format: functional;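 further: NIH-3T3 mouse fibroblasts cultured with fluconazole at 8 µg/mL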
[22] = target: T7, SUMO-activating enzyme; test: blockers of UBC9-mediated SUMO conjugation – biochemical, AlphaScreen, SUMOylation inhibitor project, confirmation (AID 2018); format: functional
[23] = target: T8, Alkaline phosphatase, tissue-nonspecific isozyme (Homo sapiens, UniProt P05186); test: activation of tissue-nonspecific alkaline phosphatase – biochemical, TNAP isozyme, human IAP uHTS hits, selectivity assay for human IAP activator project, dose response (AID 488886); format: functional;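 further: potency of compounds raising TNAP activity as a selectivity check on IAP activators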
T8 sequence (P05186 whole entry): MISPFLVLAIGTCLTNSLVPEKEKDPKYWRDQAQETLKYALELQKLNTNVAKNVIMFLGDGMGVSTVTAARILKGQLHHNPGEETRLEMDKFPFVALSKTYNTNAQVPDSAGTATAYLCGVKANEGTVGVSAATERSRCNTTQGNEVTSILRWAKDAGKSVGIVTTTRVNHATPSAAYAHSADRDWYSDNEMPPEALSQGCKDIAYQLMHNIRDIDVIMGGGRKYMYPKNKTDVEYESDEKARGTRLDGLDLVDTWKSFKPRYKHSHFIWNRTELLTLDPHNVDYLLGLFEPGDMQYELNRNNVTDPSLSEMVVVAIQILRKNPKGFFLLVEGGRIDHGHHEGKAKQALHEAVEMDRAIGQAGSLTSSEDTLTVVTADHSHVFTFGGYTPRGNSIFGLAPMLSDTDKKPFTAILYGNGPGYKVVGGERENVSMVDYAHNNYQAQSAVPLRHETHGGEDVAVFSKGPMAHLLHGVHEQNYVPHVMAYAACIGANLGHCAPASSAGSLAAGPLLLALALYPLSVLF

[24] = target: T9, Intestinal-type alkaline phosphatase (Homo sapiens, UniProt P09923); test: activation of human intestinal alkaline phosphatase – biochemical, luminescent, uHTS hits, set 2, dose response (AID 488817); format: functional;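 further: potency of activators that raise enzyme activity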
[25] = target: T9, Intestinal-type alkaline phosphatase; test: human intestinal alkaline phosphatase activators, dose response, biochemical, luminescence, uHTS hits (AID 463120); format: functional
[26] = target: G-protein coupled receptor 55 (Homo sapiens, UniProt Q9Y2T6); test: inhibition of LPI-stimulated GPR55 beta-arrestin translocation – imaging, U2OS, beta-arrestin-GFP, LPI agonist, primary screen (AID 2013); format: functional;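 further: antagonist potency measured as reduced agonist-driven arrestin aggregation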

T1 sequence (Q00975 whole entry): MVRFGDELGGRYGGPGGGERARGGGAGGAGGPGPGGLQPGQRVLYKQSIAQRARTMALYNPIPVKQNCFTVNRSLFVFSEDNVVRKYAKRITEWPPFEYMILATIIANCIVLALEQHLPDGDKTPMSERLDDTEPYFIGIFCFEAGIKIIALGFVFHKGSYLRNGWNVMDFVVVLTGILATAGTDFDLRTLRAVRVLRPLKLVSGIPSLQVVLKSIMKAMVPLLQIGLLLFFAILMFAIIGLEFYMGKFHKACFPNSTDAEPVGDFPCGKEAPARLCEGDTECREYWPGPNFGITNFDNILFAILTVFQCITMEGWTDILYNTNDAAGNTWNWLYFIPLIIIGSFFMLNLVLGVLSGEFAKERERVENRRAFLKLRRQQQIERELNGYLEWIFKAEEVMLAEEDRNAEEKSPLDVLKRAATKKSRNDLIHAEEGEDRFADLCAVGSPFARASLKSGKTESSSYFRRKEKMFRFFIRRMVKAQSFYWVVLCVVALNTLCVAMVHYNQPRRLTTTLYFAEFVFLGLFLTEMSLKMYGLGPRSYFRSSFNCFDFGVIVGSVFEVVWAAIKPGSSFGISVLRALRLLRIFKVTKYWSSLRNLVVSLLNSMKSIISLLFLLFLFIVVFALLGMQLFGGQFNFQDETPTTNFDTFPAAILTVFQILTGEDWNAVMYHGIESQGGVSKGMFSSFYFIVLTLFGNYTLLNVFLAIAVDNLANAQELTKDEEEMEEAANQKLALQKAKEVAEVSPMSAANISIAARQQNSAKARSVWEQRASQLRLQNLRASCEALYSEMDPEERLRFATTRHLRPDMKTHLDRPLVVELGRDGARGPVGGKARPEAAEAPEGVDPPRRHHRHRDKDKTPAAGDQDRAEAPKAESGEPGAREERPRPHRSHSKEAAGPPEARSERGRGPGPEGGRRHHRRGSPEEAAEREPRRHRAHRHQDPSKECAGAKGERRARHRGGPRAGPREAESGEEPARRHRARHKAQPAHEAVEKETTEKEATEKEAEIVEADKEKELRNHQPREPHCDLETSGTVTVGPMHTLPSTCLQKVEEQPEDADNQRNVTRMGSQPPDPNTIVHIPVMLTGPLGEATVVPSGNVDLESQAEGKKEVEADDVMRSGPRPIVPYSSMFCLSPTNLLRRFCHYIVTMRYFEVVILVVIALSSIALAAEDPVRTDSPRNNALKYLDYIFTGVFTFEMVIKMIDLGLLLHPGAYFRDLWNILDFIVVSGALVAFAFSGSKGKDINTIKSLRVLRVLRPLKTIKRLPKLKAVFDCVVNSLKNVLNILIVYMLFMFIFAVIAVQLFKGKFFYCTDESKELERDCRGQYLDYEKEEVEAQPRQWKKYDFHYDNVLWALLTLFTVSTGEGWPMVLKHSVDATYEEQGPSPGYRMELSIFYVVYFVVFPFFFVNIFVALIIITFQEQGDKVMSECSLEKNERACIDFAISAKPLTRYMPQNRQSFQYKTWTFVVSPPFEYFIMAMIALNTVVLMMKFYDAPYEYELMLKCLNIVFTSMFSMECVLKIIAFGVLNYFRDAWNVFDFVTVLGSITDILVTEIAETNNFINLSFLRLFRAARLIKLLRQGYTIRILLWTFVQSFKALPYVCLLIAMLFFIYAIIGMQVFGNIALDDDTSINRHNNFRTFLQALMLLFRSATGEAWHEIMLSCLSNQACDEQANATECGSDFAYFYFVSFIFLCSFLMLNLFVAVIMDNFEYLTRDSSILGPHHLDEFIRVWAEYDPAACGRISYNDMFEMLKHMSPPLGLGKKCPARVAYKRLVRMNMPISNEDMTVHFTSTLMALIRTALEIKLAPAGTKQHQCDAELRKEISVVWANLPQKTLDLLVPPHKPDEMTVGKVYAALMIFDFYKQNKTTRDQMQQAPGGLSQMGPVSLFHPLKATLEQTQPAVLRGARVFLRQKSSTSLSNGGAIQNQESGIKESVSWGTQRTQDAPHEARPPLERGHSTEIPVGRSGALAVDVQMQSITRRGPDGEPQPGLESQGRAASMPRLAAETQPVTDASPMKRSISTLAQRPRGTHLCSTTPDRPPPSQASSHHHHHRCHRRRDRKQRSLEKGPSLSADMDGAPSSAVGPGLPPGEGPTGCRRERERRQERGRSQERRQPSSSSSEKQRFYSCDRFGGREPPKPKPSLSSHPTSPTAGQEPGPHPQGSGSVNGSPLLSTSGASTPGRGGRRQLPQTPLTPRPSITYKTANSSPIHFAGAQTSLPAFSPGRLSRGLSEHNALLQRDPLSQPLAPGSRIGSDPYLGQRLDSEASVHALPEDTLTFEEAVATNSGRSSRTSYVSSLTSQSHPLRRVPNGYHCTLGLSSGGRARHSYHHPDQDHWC
T1 sequence (Q02410 whole entry): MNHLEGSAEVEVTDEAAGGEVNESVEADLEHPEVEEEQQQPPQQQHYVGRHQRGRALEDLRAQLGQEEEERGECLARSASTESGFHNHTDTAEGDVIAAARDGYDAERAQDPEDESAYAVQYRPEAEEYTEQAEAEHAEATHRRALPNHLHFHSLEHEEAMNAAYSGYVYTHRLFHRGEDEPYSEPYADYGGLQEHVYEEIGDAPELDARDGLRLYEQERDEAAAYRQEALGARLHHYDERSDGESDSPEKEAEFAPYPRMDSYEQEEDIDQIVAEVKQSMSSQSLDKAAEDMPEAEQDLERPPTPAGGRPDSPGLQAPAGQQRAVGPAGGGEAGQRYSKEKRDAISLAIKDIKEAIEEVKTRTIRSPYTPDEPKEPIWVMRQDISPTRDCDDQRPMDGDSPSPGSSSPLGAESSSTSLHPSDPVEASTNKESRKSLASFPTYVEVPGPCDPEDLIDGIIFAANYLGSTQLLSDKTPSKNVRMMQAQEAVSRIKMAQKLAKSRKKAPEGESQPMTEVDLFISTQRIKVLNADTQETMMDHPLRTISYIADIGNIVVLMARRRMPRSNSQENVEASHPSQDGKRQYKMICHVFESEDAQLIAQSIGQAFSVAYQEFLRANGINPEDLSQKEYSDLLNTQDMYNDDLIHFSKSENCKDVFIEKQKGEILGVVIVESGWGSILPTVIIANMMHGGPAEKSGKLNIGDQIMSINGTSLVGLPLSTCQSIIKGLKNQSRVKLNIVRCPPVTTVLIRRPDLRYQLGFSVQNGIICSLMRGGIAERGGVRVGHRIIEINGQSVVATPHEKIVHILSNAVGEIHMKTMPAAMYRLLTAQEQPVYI
T6 sequence (P41145 whole entry): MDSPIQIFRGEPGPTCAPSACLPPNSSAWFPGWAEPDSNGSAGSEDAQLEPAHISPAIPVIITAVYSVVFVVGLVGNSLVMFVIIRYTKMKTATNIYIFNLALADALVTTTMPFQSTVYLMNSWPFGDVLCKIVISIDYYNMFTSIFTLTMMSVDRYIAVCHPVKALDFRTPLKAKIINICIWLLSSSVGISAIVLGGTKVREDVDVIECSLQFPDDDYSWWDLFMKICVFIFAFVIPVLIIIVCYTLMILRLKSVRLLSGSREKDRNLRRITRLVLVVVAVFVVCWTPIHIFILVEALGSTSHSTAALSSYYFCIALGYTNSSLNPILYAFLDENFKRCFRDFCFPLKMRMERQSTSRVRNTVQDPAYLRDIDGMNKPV
T9 sequence (P09923 whole entry): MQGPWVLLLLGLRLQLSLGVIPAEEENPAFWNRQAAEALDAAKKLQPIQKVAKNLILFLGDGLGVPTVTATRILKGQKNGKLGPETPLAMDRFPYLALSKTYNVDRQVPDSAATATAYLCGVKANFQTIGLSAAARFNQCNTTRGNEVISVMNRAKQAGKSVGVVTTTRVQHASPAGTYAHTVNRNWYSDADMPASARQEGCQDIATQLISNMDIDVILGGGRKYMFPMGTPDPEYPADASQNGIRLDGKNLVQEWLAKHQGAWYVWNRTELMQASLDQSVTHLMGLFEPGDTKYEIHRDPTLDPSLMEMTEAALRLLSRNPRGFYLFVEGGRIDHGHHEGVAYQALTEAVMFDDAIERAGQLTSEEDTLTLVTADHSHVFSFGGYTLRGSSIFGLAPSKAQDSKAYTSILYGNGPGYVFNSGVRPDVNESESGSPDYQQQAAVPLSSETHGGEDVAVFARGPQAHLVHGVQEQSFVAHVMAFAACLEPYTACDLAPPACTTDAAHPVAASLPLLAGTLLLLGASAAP
T7 sequence (Q9UBE0 whole entry): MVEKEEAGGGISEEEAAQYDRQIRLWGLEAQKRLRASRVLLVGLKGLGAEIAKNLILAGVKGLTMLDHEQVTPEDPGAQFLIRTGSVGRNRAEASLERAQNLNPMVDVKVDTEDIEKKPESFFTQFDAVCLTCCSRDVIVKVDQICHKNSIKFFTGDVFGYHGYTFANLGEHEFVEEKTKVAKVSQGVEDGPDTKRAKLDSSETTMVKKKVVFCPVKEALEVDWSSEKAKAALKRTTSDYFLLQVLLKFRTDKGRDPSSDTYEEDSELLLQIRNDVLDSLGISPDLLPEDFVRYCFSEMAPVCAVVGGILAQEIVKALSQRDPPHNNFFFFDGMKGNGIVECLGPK
T7 sequence (Q9UBT2 whole entry): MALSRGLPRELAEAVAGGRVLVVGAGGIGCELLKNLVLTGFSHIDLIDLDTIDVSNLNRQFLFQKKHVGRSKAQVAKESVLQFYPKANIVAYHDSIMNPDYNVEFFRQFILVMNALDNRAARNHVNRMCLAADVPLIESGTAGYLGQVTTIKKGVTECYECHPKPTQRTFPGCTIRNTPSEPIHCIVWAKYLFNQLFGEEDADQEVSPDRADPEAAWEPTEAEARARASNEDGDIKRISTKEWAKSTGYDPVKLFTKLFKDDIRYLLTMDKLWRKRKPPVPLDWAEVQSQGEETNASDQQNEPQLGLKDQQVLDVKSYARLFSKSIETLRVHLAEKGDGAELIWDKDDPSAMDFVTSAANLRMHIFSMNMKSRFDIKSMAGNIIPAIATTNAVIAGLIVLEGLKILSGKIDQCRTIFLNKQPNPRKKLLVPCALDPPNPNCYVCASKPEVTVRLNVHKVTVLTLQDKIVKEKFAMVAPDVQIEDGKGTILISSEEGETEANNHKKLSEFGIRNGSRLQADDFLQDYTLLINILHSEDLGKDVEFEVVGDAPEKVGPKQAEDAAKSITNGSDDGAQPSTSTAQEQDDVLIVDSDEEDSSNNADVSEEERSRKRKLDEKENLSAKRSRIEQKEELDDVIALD

IC50 [1]: 9.25 µM (active)
IC50 [2]: > 100 µM (active)
IC50 [3]: 0.507 µM (active)
IC50 [4]: 841 nM (active) and 537 nM (active)
IC50 [5]: 20 µM (active)
Structure (SMILES): O=C(NCCCO)Nc1ccc2nc(-c3ccco3)c(-c3ccco3)nc2c1

EC50 [6]: 5.96 µM (active)
Structure (SMILES): CCOc1ccc(-n2c(SCC(=O)O)nc3sc4c(c3c2=O)CCCC4)cc1

Structure (SMILES): CN(Cc1ccccc1)C(=O)C1CCCN(Cc2cccc(Cl)c2)C1 (stereo unspecified)
EC50 [7]: > 195 µM (not active)
AC50 [8]: 0.57 µM (active)
AC50 [9]: 70.3 µM (active)
EC50 [10]: 0.231 µM (active)

Structure (SMILES): COc1cccc(-n2sc3ccccc3c2=O)c1
IC50 [11]: 14.3 µM (active)
IC50 [12]: 2.52 µM (active)
IC50 [13]: 4.19 µM (active)

IC50 [14]: > 32 µM (inactive)
IC50 [15]: 5.57 µM (active)
IC50 [16]: 10.3 µM (inactive)
IC50 [17]: 2.93 µM (active)
Structure (SMILES): CCN(CCNC(=O)c1ccc(CNS(=O)(=O)c2ccc(C)cc2)cc1)Cc1ccccc1

Structure (SMILES): COc1cccc(/C=N\NC(=O)C2=NNC(=O)C2C)c1O (stereo unspecified)
EC50 [18]: > 38 µM (not active)
EC50 [19]: > 100 µM (inactive)
IC50 [20]: 18.3 µM (active)
EC50 [21]: > 160 µM (inconclusive)
IC50 [22]: 5.18 µM (active)
EC50 [23]: 8.88 µM (active)
EC50 [24]: 9.07 µM (active)
EC50 [25]: 6.53 µM (active)

IC50 [26]: 3.1 µM (active)
Structure (SMILES): CC(NCCC(c1ccccc1)c1ccccc1)c1ccccc1 (stereo unspecified) [FENDILINE HYDROCHLORIDE]
